US12258360B2, “Compositions and methods for treatment of anticancer-drug resistant cancers” (THE GEORGE WASHINGTON UNIVERSITY, priority 2020, dated 2025)

What was measured:
IGROV1 cells = test: flow cytometry (FACS) of propidium-iodide stained IGROV1 cells; format: cell-based, human; details: 1 μM
[1] = tested on: recruitment of CtIP to DSB sites in IGROV1 cells; test: immunofluorescence assay of CtIP co-localization with γH2AX after micro-irradiation; format: cell-based, human; details: 1 μM, 30 minutes post irradiation
Description: H2AX (H2A histone family member X) becomes phosphorylated on serine 139 (wherein the phosphorylated form is then called […]) as a reaction on DNA double-strand breaks (DSB). And-1 regulates DSB end resection by establishing a condition or acting as a platform for recruitment of the tumor suppressor protein CtIP—a CtBP (carboxy-terminal binding protein)-interacting protein, to the DSB sites. […] In brief, IGROV1 cells were cultured on coverslips coated with 0.01% of poly-L-lysine. After treatment, the cells were then washed once with PBS, then pre-extracted with 0.5% Triton X-100 extraction buffer (10 mM PIPES pH 7.0, 100 mM NaCl, 3 mM MgCl2 and 300 mM sucrose) on ice for 5 minutes. After washing with PBS, cells were fixed with 4% paraformaldehyde in PBS for 15 minutes. Cells were then washed and incubated for 10 minutes in blocking buffer (PBS containing 3% BSA and 0.02% Tween-20) and subsequently incubated for 1 hour with a primary antibody at room temperature. Cells were washed three times with PBS-T (PBS containing 0.02% Tween-20) and then incubated with a secondary antibody (e.g., rabbit Alexa Fluor-594 and mouse Alexa Fluor-488). After washing with PBS-T, cells were mounted with Fluoromount G containing DAPI (4′,6-diamidino-2-phenylindole—a fluorescent stain that binds strongly to adenine-thymine-rich regions in DNA). Slides were then imaged using a Nikon Eclipse 80i microscope. […]

IGROV1 CR xenograft = format: in vivo, mice
Description: To evaluate the potency of And-1 inhibitors in vivo, IGROV1 or MCF7 cells were subcutaneously implanted into nude mice to form ovarian or breast tumors, respectively. In brief, 5-6 week-old female BALB/c athymic nude mice (CByJ.Cg-Foxn1nu/J, weighting 20-25 grams) were inoculated subcutaneously by injecting the OC cells, cisplatin resistant OC cells or breast cancer cells suspended in 100 μl ice-cold Matrigel/PBS (1:1, V:V; 5×10^6/mouse) into the dorsal flank of each mouse. When the average tumor volume reached 100-150 mm^3, the mice were randomized into subsequent experiment groups. For tumors treated with CH3 only, CH3 was given at 0 mg/kg, 20 mg/kg and 40 mg/kg via intraperitoneal injection twice a week for three weeks. […] The relative tumor volumes were calculated using the formula: a×(b^2)/2, for which a and b represented the longest and shortest diameters, respectively. During the drug treatment, the tumor volume and body weight were measured. Tumor samples were collected 4 days after final administration of the drug.
To assess the efficacy of combination therapy with And-1 inhibitor and cisplatin in vivo, an IGROV1 CR xenograft was treated with vehicle, And-1 inhibitors, cisplatin or combination of cisplatin and And-1 inhibitor via intraperitoneal injection.

And-1 = target: T1, And-1 (Homo sapiens, UniProt O75717); test: cellular thermal shift assay; format: binding; set-up: endogenous in cells; host or cells: IGROV1 CR; details: cells incubated 8 hours, compared to DMSO
T1 sequence (O75717 1-1129): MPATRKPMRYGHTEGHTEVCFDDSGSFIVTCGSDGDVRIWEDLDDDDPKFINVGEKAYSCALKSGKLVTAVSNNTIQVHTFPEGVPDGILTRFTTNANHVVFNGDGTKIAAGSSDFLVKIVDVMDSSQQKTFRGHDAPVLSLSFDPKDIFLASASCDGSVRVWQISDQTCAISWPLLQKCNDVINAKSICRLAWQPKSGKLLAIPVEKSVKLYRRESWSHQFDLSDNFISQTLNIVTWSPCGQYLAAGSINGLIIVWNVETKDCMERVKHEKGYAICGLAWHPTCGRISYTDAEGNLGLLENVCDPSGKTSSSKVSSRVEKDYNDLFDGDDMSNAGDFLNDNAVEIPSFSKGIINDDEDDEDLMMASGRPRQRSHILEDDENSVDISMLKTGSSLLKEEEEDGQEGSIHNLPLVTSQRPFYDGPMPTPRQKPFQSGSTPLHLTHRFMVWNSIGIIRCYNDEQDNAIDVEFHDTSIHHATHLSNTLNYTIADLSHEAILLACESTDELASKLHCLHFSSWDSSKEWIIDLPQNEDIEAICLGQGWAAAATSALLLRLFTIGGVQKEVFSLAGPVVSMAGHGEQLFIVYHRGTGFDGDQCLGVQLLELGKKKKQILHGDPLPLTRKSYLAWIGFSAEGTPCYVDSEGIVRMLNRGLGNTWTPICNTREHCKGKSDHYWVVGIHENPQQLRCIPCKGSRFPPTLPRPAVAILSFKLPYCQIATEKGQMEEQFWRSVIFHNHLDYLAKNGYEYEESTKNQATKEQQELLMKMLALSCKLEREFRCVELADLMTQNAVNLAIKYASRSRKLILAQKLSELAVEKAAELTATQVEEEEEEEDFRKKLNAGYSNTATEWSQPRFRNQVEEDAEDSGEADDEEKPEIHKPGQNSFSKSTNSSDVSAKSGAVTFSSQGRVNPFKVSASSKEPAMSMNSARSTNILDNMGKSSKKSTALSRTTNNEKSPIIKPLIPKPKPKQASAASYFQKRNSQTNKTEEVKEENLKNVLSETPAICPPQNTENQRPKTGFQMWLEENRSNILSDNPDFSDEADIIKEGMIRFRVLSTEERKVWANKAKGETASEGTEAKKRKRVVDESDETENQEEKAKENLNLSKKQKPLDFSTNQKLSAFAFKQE
Description: To explore whether And-1 inhibitors directly bind to And-1, cellular thermal shift assays were performed in which a small molecule binds to a protein resulting in thermal stabilization of the protein. Briefly, cells were incubated with MG132 (10 μM), DHS, CH3, CH10 or DMSO for 8 hours. After washing with ice-cold PBS (suppled with Protease Inhibitor Cocktail), cells were aliquoted into PCR tubes (100 μL each) and then incubated at different temperatures (from 25° C. to 71° C.) for 4 minutes. After the cells were frozen and thawed twice using liquid nitrogen, proteins were isolated from the cells after centrifugation and incubated at 70° C. for 10 minutes for analysis by western blotting.

SMILES: OB1OCc2cc(/C=C/c3ccc(Cl)c(Cl)c3)ccc21 [CH3]
- percentage of cells in the S-phase (IGROV1 cells): reduced the percentage of cells in the S-phase
- recruitment of CtIP to DSB sites induced by micro-irradiation [1]: significantly decreased
- And-1 expression in tumor samples (IHC) (IGROV1 CR xenograft; IGROV1 CR xenograft): suppressed expression of And-1
- tumor growth, combination with cisplatin vs cisplatin alone (IGROV1 CR xenograft; IGROV1 CR xenograft, cisplatin 8 mg/kg, CH3 20 mg/kg, BZA 2 mg/kg intraperitoneally, three weeks): excellent synergy in reducing tumor growth
- systemic toxicity of combination with cisplatin (body weight, H&E staining) (IGROV1 CR xenograft; mouse, in vivo): no obvious systemic toxicity or side effect
- thermal stabilization of And-1 protein at higher temperatures (And-1): stabilized
